Experimental data from patent US20240239788A1, “SMALL MOLECULE INHIBITORS OF KRAS G12D MUTANT” (Merck Sharp & Dohme LLC, priority 2021, published 2024).
Where a name gives a salt, the structure may show the parent alone. Read-outs that look alike come from different tables or passages of the source.

Columns and labels:
[1] = biological target: KRAS protein containing G12D mutation (Homo sapiens (Human), UniProt P01116, G12D); test: SOS-catalyzed nucleotide exchange assay (GNE), TR-FRET; format: biochemical; settings: biotinylated KRAS G12D, SOS and GTP, 60-minute incubation
KRAS protein containing G12D mutation, sequence (P01116 other isoform, or with tags, fused parts or gaps G12D (already in the parent)): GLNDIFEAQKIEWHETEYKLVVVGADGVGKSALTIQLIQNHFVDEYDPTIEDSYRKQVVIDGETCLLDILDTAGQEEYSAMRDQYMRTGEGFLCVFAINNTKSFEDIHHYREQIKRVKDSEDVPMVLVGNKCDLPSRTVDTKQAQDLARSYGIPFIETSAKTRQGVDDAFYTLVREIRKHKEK
Method: Compounds are added to this complex and then after a 60-minute incubation time the mixture is treated with SOS and unlabeled GTP. Small molecule inhibitors stabilize the Bodipy-GDP complex whereas the untreated protein rapidly exchanges Bodipy-GDP for unlabeled GTP resulting in reduced TR-FRET signal.
This solution is referred to as biotinylated KRAS G12D stock solution.

[2] = tested on: AsPC-1 cells containing homozygous KRAS-G12D activating mutation; test: Cellular phospho-ERK assay with 10% FBS (Examples 107a-256); format: cell-based
Method: 5% CO2 for 2 hours. […] Assay plates were read on a EnVision Multimode Plate Reader (PerkinElmer) and the ratio of p-Erk vs total Erk in each well was used as the final readout.

[3] = Homo sapiens, ASPC1, 2 h, read-out: IC50 (nM) pERK (cell with FBS 10%), AsPC-1 cells, 10% fetal bovine serum, 2 hours, ratio of p-Erk vs total Erk

Structure (SMILES)	IC50 [1]	IC50 ([2]; read-out: IC50 (nM) pERK (cell with FBS 10%), AsPC-1 cells, 10% fetal bovine serum, 2 hours, ratio of p-Erk vs total Erk)	IC50 [2, 3]
CN(C)C[C@@]1(COc2nc(N3C[C@H]4CC[C@@](C)(C3)N4)c3cc(C#N)c(-c4cc(O)cc5ccccc45)c(F)c3n2)CC1(F)F [Ex. 136a, 2-(((R)-1-((dimethylamino)methyl)-2,2-difluorocyclopropyl)methoxy)-8-fluoro-7-(3-hydroxynaphthalen-1-yl)-4-((1S,5R)-1-methyl-3,8-diazabicyclo[3.2.]octan-3-yl)quinazoline-6-carbonitrile]	4.93 nM	645 nM	–
Cc1cc2[nH]ncc2c(-c2c(F)cc3c(N4CC5CCC(C4)N5)nc(OC[C@@]45CCCN4C[C@H](F)C5)nc3c2F)c1C(F)(F)F [Ex. 140, 4-((1R,5S)-3,8-diazabicyclo[3.2.1]octan-3-yl)-6,8-difluoro-2-(((2R,7aS)-2-fluorotetrahydro-1H-pyrrolizin-7a(5H)-yl)meth-oxy)-7-(6-methyl-5-(trifluoromethyl)-1H-indazol-4-yl)quin-azoline, TFA]	3.88 nM	–	113 nM
CCc1cccc2cccc(-c3c(F)cc4c(N5C[C@H]6CC[C@@](C)(C5)N6)nc(OC[C@@]56CCCN5C[C@H](F)C6)nc4c3F)c12 [Ex. 141, 7-(8-ethylnaphthalen-1-yl)-6,8-difluoro-2-(((2R,7aS)-2-fluorotetrahydro-1H-pyrrolizin-7a(5H)-yl)methoxy)-4-((1S,5R)-1-methyl-3,8-diazabicyclo[3.2.1]octan-3-yl)-quinazoline, TFA]	139 nM	–	16400 nM
C#Cc1csc2ccnc(-c3c(F)cc4c(N5C[C@H]6CC[C@@H](C5)N6)nc(OC[C@@]56CCCN5C[C@H](F)C6)nc4c3F)c12 [Ex. 152, 4-(4-((1R,5S)-3,8-diazabicyclo[3.2.1]octan-3-yl)-6,8-difluoro-2-(((2R,7aS)-2-fluorotetrahydro-1H-pyrrolizin-7a(5H)-yl)-methoxy)quinazolin-7-yl)-3-ethynylthieno[3,2-c]pyridine]	848 nM	–	5190 nM
C[C@]12CC[C@H](CN(c3nc(OC[C@@]45CCCN4C[C@H](F)C5)nc4c(F)c(-c5cc(O)cc6cccc(C7CC7)c56)c(F)cc34)C1)N2 [Ex. 159, 5-cyclopropyl-4-(6,8-difluoro-2-(((2R)-2-fluorotetrahydro-1H-pyrrolizin-7a(5H)-yl)-methoxy)-4-((1S,5R)-1-methyl-3,8-diaza-bicyclo[3.2.1]octan-3-yl)quinazolin-7-yl)-naphthalen-2-ol]	4.28 nM	–	139 nM
C[C@]12CCC(CN(c3nc(OC[C@@]45CCCN4C[C@H](F)C5)nc4c(F)c(-c5cc(O)cc6cccc(Cl)c56)c(F)c(F)c34)C1)N2 [Ex. 172, 5-chloro-4-(5,6,8-trifluoro-2-(((2R,7aS)-2-fluorotetrahydro-1H-pyrrolizin-7a(5H)-yl)-methoxy)-4-((1S,5R)-1-methyl-3,8-diaza-bicyclo[3.2.1]octan-3-yl)quinazolin-7-yl)-naphthalen-2-ol, 2TFA]	17.1 nM	–	3500 nM
CN1CCC[C@H]1COc1nc(N2C[C@H]3CC[C@@](C)(C2)N3)c2cc(F)c(-c3cc(O)cc4cccc(Cl)c34)c(F)c2n1 [Ex. 185, 5-chloro-4-(6,8-difluoro-4-((1S,5R)-1-methyl-3,8-diaza-bicyclo-[3.2.1]octan-3-yl)-2-(((S)-1-methyl-pyrrolidin-2-yl)meth-oxy)quinazolin-7-yl)-naphthalen-2-ol]	732 nM	–	7040 nM
C[C@]12CC[C@H](CN(c3nc(OC[C@@]45CCCN4C[C@H](F)C5)nc4c(F)c(-c5c6cn[nH]c6cc6cccc(Cl)c56)c(F)cc34)C1)N2 [Ex. 187, 5-chloro-4-(6,8-difluoro-2-(((2R,7aS)-2-fluorotetrahydro-1H-pyrrolizin-7a(5H)-yl)-methoxy)-4-((1S,5R)-1-methyl-3,8-diaza-bicyclo[3.2.1]octan-3-yl)quinazolin-7-yl)-1H-benzo[f]indazole]	27.3 nM	–	1100 nM
